For one assay, the system named is SW1417. As to the kind of experiment: Antiproliferative activity against human SW1417 cells incubated for 72 hrs by celltiter glo assay. It is filed as functional, cell-based. The settings on record: SW1417, 72 h.
The subject of the next assay is RKO. As to the kind of experiment: Antiproliferative activity against human RKO cells incubated for 72 hrs by celltiter glo assay. Format: functional, cell-based. On the technique in general: Cellular ATP, detected with luciferase, serves as a proxy for viable cell number.
For a further assay, the system named is WM-115. The assay is described as follows: Antiproliferative activity against human WM-115 cells incubated for 72 hrs by celltiter glo assay. It is filed as functional, cell-based. The settings on record: WM-115, 72 h.
Assay [1] concerns A-375. The assay is described as follows: Antiproliferative activity against human A-375 cells incubated for 72 hrs by celltiter glo assay. Format: functional, cell-based. The settings on record: A-375, 72 h.
The test system of the next assay is COLO 205. As to the kind of experiment: Antiproliferative activity against human COLO 205 cells incubated for 72 hrs by celltiter glo assay. Format: functional, cell-based. The settings on record: COLO 205, 72 h.
Another assay deals with A549. As to the kind of experiment: Antiproliferative activity against human A549 cells assessed as cell growth inhibition. Format: functional, cell-based.
Assay [2] concerns the target T1, Serine/threonine-protein kinase B-raf (Homo sapiens, UniProt P15056, V600E). The assay is described as follows: (§1) Inhibition of B-Raf V600E mutant (unknown origin).
Target sequence in this assay (P15056 whole entry V600E): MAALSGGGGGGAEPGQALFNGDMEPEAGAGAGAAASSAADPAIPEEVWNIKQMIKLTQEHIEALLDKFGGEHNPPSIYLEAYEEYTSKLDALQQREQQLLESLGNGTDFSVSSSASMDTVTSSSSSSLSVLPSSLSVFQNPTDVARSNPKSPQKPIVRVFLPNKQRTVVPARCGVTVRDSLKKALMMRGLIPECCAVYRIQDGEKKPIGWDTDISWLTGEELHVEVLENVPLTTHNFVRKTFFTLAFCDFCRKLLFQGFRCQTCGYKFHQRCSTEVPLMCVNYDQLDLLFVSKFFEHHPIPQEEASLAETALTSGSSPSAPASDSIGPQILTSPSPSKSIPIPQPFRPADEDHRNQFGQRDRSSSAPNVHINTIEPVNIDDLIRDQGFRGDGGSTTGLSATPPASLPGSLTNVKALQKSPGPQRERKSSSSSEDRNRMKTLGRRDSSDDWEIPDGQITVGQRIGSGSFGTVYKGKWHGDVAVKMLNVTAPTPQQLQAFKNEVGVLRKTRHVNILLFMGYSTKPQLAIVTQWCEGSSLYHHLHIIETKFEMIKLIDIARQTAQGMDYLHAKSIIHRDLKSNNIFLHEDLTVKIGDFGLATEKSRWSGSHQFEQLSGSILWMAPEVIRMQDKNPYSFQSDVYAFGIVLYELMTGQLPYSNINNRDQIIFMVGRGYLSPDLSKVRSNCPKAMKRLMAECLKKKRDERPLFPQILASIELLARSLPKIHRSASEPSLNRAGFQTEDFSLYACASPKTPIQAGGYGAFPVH
A further assay concerns HUVEC. As to the kind of experiment: Cytotoxicity against HUVEC cells. Format: functional, cell-based. The settings on record: Homo sapiens.
Assay [3] relates to A-375. The assay is described as follows: Cytotoxicity against human A-375 cells. It is filed as functional, cell-based.
The subject of assay [4] is A-375. As to the kind of experiment: Antitumor activity against human A-375 cells xenografted in mouse model assessed as tumor growth inhibition at 50 mg/kg relative to control. It is filed as functional. Set-up: scale not given: the % may be the effect or the level left. Background: A xenograft is tissue or cells of one species grown in another, often human tumour cells in immunodeficient mice.

For assay [5], the system named is Serine/threonine-protein kinase B-raf (Homo sapiens), P15056 [V600E]. The assay is described as §1.
Serine/threonine-protein kinase B-raf (Homo sapiens), P15056 [V600E], sequence (P15056 whole entry V600E): as above
For assay [6], the target named is T2, Serine/threonine-protein kinase B-raf (Homo sapiens, UniProt P15056). The assay is described as follows: Inhibition of wild type B-Raf (unknown origin).
T2 sequence (P15056 whole entry, the tested form may be a part): as the sequence (P15056 whole entry V600E) above, with E600V counted along it
Assay [7] addresses T1, Serine/threonine-protein kinase B-raf. The assay is described as follows: Inhibition of human B-Raf V600E mutant (433 to 726 residues) expressed in Escherichia coli BL21 cells by ELISA based assay. In general terms: An ELISA detects its analyte on a solid surface through an enzyme-linked reagent.
Target sequence in this assay (P15056 2-766 V600E limits assumed): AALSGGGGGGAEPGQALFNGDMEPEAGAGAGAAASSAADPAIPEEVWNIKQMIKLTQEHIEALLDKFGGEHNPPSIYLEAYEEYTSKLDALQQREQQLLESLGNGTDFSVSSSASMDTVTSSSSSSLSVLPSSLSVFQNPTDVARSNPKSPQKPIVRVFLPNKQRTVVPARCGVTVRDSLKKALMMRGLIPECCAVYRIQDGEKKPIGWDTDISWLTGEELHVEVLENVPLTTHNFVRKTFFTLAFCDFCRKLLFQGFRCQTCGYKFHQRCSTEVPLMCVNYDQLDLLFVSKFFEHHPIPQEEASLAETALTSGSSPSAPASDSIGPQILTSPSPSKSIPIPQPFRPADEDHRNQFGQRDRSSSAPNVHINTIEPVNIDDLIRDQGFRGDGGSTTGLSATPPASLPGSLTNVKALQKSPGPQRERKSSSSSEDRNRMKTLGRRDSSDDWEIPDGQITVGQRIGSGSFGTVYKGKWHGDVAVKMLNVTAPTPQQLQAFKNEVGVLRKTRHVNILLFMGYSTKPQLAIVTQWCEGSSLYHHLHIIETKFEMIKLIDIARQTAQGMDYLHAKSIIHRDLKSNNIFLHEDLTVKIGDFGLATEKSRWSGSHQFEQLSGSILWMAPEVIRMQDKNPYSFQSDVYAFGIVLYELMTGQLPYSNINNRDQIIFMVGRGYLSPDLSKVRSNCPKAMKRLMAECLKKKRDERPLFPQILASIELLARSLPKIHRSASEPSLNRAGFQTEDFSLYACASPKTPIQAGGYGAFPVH
The target of assay [8] is T2, Serine/threonine-protein kinase B-raf. As to the kind of experiment: Inhibition of human wild type B-Raf (433 to 726 residues) expressed in Escherichia coli BL21 cells by ELISA based assay.
Assay [9] deals with WM 266-4. As to the kind of experiment: Antiproliferative activity against human WM266-4 cells incubated for 24 hrs by MTT assay. The conditions noted are these: WM 266-4, 24 h. It is filed as functional, cell-based.
Assay [10] in a line: Inhibition of full length GST tagged mouse B-Raf V600E mutant measured after 25 mins by ELISA method.
The subject of assay [11] is WM 266-4. As to the kind of experiment: Antiproliferative activity against human WM266-4 cells measured after 48 hrs by MTT assay. Format: functional, cell-based. The conditions noted are these: WM 266-4, 48 h.
Assay [12] is described as follows: Antiproliferative activity against human WM1361 cells measured after 48 hrs by MTT assay. The settings on record: WM1361, 48 h. Format: functional, cell-based.
In assay [13] the test system is A-375. The assay is described as follows: Antiproliferative activity against human A-375 cells measured after 48 hrs by MTT assay. The conditions noted are these: A-375, 48 h. It is filed as functional, cell-based.
Assay [14] in a line: Inhibition of full length GST tagged mouse B-Raf V600E mutant preincubated for 1 hr and measured after 25 mins in presence of ATP.
In another assay the test system is SK-MEL-5. As to the kind of experiment: Antiproliferative activity against human SK-MEL-5 cells. It is filed as functional, cell-based.
Assay [15] has as its target T1, Serine/threonine-protein kinase B-raf. As to the kind of experiment: Inhibition of B-Raf V600E mutant (unknown origin) incubated for 1 hr by ELISA based luminescence assay.
Target sequence in this assay (P15056 2-766 V600E limits assumed): as above
For assay [16], the target named is T2, Serine/threonine-protein kinase B-raf. The assay is described as follows: Inhibition of wild type B-Raf (unknown origin) incubated for 1 hr by ELISA based luminescence assay.
For assay [17], the system named is WM 266-4. The assay is described as follows: Antiproliferative activity against human WM266-4 cells incubated for 48 hrs by MTT based colorimetric method. It is filed as functional, cell-based. The conditions noted are these: WM 266-4, 48 h.
Assay [18] concerns A-375. As to the kind of experiment: Antiproliferative activity against human A-375 cells incubated for 48 hrs by MTT based colorimetric method. It is filed as functional, cell-based. The settings on record: A-375, 48 h.
Assay [19] has as its target Serine/threonine-protein kinase B-raf (Mus musculus, UniProt P28028). As to the kind of experiment: Inhibition of full length GST tagged mouse wild type B-Raf preincubated for 1 hr and measured after 25 mins in presence of ATP.
Another assay concerns MDA-MB-468. The assay is described as follows: Antiproliferative activity against human MDA-MB-468 cells. Format: functional, cell-based.
Assay [20] concerns the target T1, Serine/threonine-protein kinase B-raf. As to the kind of experiment: Binding affinity to B-Raf V600E mutant (unknown origin).
Target sequence in this assay (P15056 2-766 V600E limits assumed): as above
For another assay, the system named is K562. The assay is described as follows: Antiproliferative activity against human K562 cells. Format: functional, cell-based.
The next assay relates to RPMI-8226. The assay is described as follows: Antiproliferative activity against human RPMI-8226 cells. It is filed as functional, cell-based.

Serine/threonine-protein kinase B-raf (Mus musculus, UniProt P28028), sequence (P28028 whole entry): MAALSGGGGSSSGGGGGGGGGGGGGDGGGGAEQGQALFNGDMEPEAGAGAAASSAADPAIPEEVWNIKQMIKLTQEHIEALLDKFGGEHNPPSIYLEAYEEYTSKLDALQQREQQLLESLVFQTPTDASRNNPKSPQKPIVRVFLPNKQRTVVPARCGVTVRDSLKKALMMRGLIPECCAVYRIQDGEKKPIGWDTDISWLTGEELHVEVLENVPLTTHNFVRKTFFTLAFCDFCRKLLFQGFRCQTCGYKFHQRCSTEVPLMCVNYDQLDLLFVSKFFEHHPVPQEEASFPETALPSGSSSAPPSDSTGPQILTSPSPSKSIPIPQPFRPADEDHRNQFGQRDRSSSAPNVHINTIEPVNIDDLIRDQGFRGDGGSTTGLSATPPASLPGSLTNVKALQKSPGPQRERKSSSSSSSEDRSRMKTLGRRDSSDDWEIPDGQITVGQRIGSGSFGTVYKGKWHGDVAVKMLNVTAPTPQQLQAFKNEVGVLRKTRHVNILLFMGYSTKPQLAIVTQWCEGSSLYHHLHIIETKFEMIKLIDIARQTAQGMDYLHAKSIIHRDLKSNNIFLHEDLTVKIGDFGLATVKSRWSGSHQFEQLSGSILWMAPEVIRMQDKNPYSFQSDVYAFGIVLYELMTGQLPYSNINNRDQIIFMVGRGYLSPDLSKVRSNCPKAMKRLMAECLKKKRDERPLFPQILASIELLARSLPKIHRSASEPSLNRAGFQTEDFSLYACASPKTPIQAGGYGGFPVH

A word on the IC50: it is the midpoint of a concentration-inhibition curve. `CC(=O)Nc1cc(-c2sc(C3CCN(C4CC4)CC3)nc2-c2cccc(NS(=O)(=O)c3cc(F)ccc3F)c2F)ccn1`: the IC50 was 208 nM with SW1417; 2280 nM in the assay with RKO; 148 nM in the assay with WM-115; 3 nM with A-375 [1]; 5 nM in the assay with COLO 205.

Turning to `Cc1ccc(C2=NN=C(NC(=S)Nc3ccc(Cl)cc3)SC2)cc1`, the 50% inhibitory concentration (IC50) turned out to be 320 nM with A549 and 180 nM in assay [2].

For the compound `CNC(=O)c1nc2ccc(C(=O)c3cccc(NC(=O)Nc4ccc(Cl)c(C(F)(F)F)c4)c3)cc2[nH]1`, the 50% inhibitory concentration (IC50) was found to be 12.5 µM in the assay with HUVEC, 3.62 µM in the assay on A-375 [3] and 57.8 nM in assay [5]. Besides, the Activity with A-375 [4] is 17.99%.

Consider `O=S(=O)(Nc1ccc(F)c(Nc2ccccc2-c2ncnc3[nH]cnc23)c1F)c1ccoc1`, for which the IC50 came out at 2 nM in assay [2] and 2.2 nM in assay [6].

On to `CCCCN1CCN(Oc2cc3nccc(Oc4ccc(NS(=O)(=O)c5cc(F)ccc5F)cc4F)c3cc2OC)CC1`, for which the IC50 in assay [2] stood at 91 nM; in assay [6], 100 nM.

On to `COC(=O)c1ccccc1-c1ccc(/C=C/[N+](=O)[O-])o1`, for which the figures for the IC50 in assay [7] and in [8] were 1960 nM and 1380 nM, respectively.

With `Oc1ccccc1C1CC(c2ccc(Cl)c(Cl)c2)=NN1c1ccccc1` (stereo unspecified), the IC50 in the assay with WM 266-4 [9] was 1750 nM; in assay [10], 150 nM.

On to `COc1ccc(S(=O)(=O)Nc2cc(-c3ccc(C)cc3)[nH]n2)cc1`, for which the IC50 in the assay with WM 266-4 [11] was determined as 1580 nM; in assay [12] it was 10.1 µM; in the assay with A-375 [13], 2040 nM; in assay [14], 180 nM.

For `O=S(=O)(NCCCNc1cc(-c2cn(-c3ccccc3)nc2-c2cccc(O)c2)ccn1)c1ccc(Cl)cc1`, the results for the IC50 (in the assay on SK-MEL-5; in [2]; in assay [6]) were 1270 nM, 1160 nM and 4870 nM, respectively.

As for `Cc1cnc2[nH]cc(C(=O)c3c(F)ccc(N[S+]([O-])C(C)C)c3F)c2c1` (stereo unspecified), the IC50 in assay [15] was 54 nM; in [16] it was 200 nM.

Regarding `COc1ccc(-n2cc(Nc3cccc4[nH]ncc34)cn2)cc1`, the IC50 with WM 266-4 [17] was determined as 380 nM; in [14], 40 nM; with A-375 [18], 340 nM; in [19], 770 nM.

Take `COc1cccc(-c2nn(-c3ccccc3)cc2-c2ccncc2)c1`: the IC50 in the assay with MDA-MB-468 amounted to 6.7 µM; in [20], 1440 nM; in the assay on K562, 3.42 µM; in the assay with RPMI-8226 it was 1710 nM.

For the origin of these results see ChEMBL document CHEMBL5230104, “Systemic review on B-RafV600E mutation as potential therapeutic target for the treatment of cancer” (Eur J Med Chem, 2020).
